In this experiment the target is human F508del-CFTR (Homo sapiens, UniProt P13569, DEL508-508). Description: F508del-CFTR cell surface expression (corrector activity), DiscoveRx ß-galactosidase complementation chemiluminescence assay in recombinant U2OS cell line.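 On all read-outs here: U2OS cells co-expressing ProLink-tagged F508del-CFTR and a membrane-anchored enzyme acceptor, where more surface CFTR restores β-galactosidase activity measured by chemiluminescence.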 The following applies: U2OS cell line, 16h compound incubation; for EC50: EC50, F508del-CFTR cell surface expression, geomean values; for Emax: U2OS, in relation to the Emax of the corrector lumacaftor (=100%), arithmetic mean values.

14 molecules from patent US20240208992A1, “MACROCYCLES AS CFTR MODULATORS” (Idorsia Pharmaceuticals Ltd, priority 2021, published 2024) can be followed below.

Sequence of human F508del-CFTR (P13569 with tags, fused parts or gaps DEL508-508): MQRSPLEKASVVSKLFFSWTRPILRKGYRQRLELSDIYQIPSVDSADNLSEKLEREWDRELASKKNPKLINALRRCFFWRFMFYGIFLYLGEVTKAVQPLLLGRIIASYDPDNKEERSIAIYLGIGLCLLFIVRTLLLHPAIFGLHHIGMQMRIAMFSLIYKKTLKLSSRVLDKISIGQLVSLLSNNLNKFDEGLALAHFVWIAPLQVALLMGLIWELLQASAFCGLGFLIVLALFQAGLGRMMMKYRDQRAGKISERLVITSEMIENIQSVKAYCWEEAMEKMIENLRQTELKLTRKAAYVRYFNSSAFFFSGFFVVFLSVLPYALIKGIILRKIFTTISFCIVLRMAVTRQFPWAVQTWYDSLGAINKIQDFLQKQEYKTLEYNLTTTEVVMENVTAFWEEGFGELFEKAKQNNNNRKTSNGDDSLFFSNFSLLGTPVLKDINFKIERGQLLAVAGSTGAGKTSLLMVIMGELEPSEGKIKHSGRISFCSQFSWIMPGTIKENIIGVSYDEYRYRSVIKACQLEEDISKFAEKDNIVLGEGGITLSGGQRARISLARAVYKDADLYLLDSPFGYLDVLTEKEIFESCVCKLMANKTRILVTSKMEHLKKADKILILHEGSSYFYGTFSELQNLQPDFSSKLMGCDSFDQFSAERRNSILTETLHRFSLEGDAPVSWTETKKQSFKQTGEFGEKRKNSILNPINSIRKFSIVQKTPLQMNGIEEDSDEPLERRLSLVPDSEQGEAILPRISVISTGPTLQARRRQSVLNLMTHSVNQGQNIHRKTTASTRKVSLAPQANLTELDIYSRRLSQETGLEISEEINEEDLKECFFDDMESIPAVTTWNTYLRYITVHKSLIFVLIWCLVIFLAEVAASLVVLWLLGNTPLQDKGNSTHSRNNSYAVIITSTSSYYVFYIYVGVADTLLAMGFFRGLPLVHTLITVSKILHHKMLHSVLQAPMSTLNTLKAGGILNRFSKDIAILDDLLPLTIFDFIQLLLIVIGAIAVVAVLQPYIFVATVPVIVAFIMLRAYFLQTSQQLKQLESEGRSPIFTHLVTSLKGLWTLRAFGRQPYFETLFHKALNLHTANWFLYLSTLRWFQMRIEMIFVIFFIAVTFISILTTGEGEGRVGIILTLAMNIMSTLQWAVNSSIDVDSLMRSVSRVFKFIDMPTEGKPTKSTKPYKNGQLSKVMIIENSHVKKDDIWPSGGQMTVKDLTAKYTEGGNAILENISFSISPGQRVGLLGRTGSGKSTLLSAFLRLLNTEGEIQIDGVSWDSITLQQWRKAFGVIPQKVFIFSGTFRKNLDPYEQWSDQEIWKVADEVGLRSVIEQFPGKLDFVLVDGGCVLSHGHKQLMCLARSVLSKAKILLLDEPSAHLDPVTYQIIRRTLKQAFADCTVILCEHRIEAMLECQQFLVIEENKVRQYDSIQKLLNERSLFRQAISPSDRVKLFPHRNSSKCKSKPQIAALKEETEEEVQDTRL

Turning to `CC(C)C[C@H]1C(=O)N(C)C2(CC2)C(=O)N[C@H](Cc2ccccc2)COc2cnc3ccccc3c2C(=O)N[C@H](C(=O)NCCc2nc(C3CC3)no2)CC(=O)N1C` [Example 121, (3′S,7′S,13′R)-13′-benzyl-N-(2-(3-cyclopropyl-1,2,4-oxadiazol-5-yl)ethyl)-7′-isobutyl-6′,9′-dimethyl-1′,5′,8′,11′-tetraoxo-2′,3′,4′,5′,6′,7′,8′,9′,11′,12′,13′,14′-dodecahydro-1′H-spiro[cyclopropane-1,10′-[1]oxa[4,7,10,14]tetraazacycloheptadecino[17,16-c]quinoline]-3′-carboxamide], the EC50 is 0.615 µM and the Emax was found to be 354%.
The corresponding values for `CC(C)C[C@H]1C(=O)N2CCCC[C@@H]2C(=O)N[C@H](Cc2ccccc2)COc2cnc3ccccc3c2C(=O)N[C@H](C(=O)NCCc2ccc(-c3ncccn3)cc2)CC(=O)N1C` [Example 122, (9S,13S,19aR,22R)-22-benzyl-13-isobutyl-12-methyl-7,11,14,20-tetraoxo-N-(4-(pyrimidin-2-yl)phenethyl)-7,8,9,10,11,12,13,14,17,18,19,19a,20,21,22,23-hexadecahydro-16H-pyrido[2′,1′:6,7][1]oxa[4,7,10,14]tetraazacycloheptadecino[17,16-c]quinoline-9-carboxamide] are 0.324 µM and 292%.
In the same order, the values of `CC(C)C[C@H]1C(=O)N2CCCC[C@@H]2C(=O)N[C@H](Cc2ccccc2)COc2cnc3ccccc3c2C(=O)N[C@H](C(=O)NCCc2cccc(-c3ncccn3)c2)CC(=O)N1C` [Example 123, (9S,13S,19aR,22R)-22-benzyl-13-isobutyl-12-methyl-7,11,14,20-tetraoxo-N-(3-(pyrimidin-2-yl)phenethyl)-7,8,9,10,11,12,13,14,17,18,19,19a,20,21,22,23-hexadecahydro-16H-pyrido[2′,1′:6,7][1]oxa[4,7,10,14]tetraazacycloheptadecino[17,16-c]quinoline-9-carboxamide] are 0.873 µM and 280%.
In the same order, the values of `CC(C)C[C@H]1C(=O)N2CCCC[C@@H]2C(=O)N[C@H](Cc2ccccc2)COc2cnc3ccccc3c2C(=O)N[C@H](C(=O)NCCc2cnn(C3CC3)c2)CC(=O)N1C` [Example 124, (9S,13S,19aR,22R)-22-benzyl-N-(2-(1-cyclopropyl-1H-pyrazol-4-yl)ethyl)-13-isobutyl-12-methyl-7,11,14,20-tetraoxo-7,8,9,10,11,12,13,14,17,18,19,19a,20,21,22,23-hexadecahydro-16H-pyrido[2′,1′:6,7][1]oxa[4,7,10,14]tetraazacycloheptadecino[17,16-c]quinoline-9-carboxamide] are 0.382 µM and 347%.
For the molecule `Cc1cc(CCNC(=O)[C@@H]2CC(=O)N(C)[C@@H](CC(C)C)C(=O)N3CCCC[C@@H]3C(=O)N[C@H](Cc3ccccc3)COc3cnc4ccccc4c3C(=O)N2)ccc1-n1nccn1` [Example 125, (9S,13S,19aR,22R)-22-benzyl-13-isobutyl-12-methyl-N-(3-methyl-4-(2H-1,2,3-triazol-2-yl)phenethyl)-7,11,14,20-tetraoxo-7,8,9,10,11,12,13,14,17,18,19,19a,20,21,22,23-hexadecahydro-16H-pyrido[2′,1′:6,7][1]oxa[4,7,10,14]tetraazacycloheptadecino[17,16-c]quinoline-9-carboxamide], the EC50 came to 0.271 µM and the Emax turned out to be 229%.
In the case of `CC(C)C[C@H]1C(=O)N2CCCC[C@@H]2C(=O)N[C@H](Cc2ccccc2)COc2cnc3ccccc3c2C(=O)N[C@H](C(=O)NCCc2cc(F)cc(F)c2)CC(=O)N1C` [Example 126, (9S,13S,19aR,22R)-22-benzyl-N-(3,5-difluorophenethyl)-13-isobutyl-12-methyl-7,11,14,20-tetraoxo-7,8,9,10,11,12,13,14,17,18,19,19a,20,21,22,23-hexadecahydro-16H-pyrido[2′,1′:6,7][1]oxa[4,7,10,14]tetraazacycloheptadecino[17,16-c]quinoline-9-carboxamide], the EC50 is 0.261 µM and the maximal effect (Emax) was found to be 230%.
For the molecule `CC(C)C[C@H]1C(=O)N2CCCC[C@@H]2C(=O)N[C@H](Cc2ccccc2)COc2cnc3ccccc3c2C(=O)N[C@H](C(=O)NCCc2nc(C3CC3)no2)CC(=O)N1C` [Example 127, (9S,13S,19aR,22R)-22-benzyl-N-(2-(3-cyclopropyl-1,2,4-oxadiazol-5-yl)ethyl)-13-isobutyl-12-methyl-7,11,14,20-tetraoxo-7,8,9,10,11,12,13,14,17,18,19,19a,20,21,22,23-hexadecahydro-16H-pyrido[2′,1′:6,7][1]oxa[4,7,10,14]tetraazacycloheptadecino[17,16-c]quinoline-9-carboxamide], the EC50 amounted to 0.107 µM and the Emax amounted to 311%.
In the same order, the values of `CC(C)C[C@H]1C(=O)N2CCCC[C@@H]2C(=O)N[C@H](Cc2ccccc2)COc2cnc3ccccc3c2C(=O)N[C@H](C(=O)NCCc2noc(C3CCC3)n2)CC(=O)N1C` [Example 128, (9S,13S,19aR,22R)-22-benzyl-N-(2-(5-cyclobutyl-1,2,4-oxadiazol-3-yl)ethyl)-13-isobutyl-12-methyl-7,11,14,20-tetraoxo-7,8,9,10,11,12,13,14,17,18,19,19a,20,21,22,23-hexadecahydro-16H-pyrido[2′,1′:6,7][1]oxa[4,7,10,14]tetraazacycloheptadecino[17,16-c]quinoline-9-carboxamide] are 0.19 µM and 292%.
As to `Cc1cn(C)nc1CCNC(=O)[C@@H]1CC(=O)N(C)[C@@H](CC(C)C)C(=O)N2CCCC[C@@H]2C(=O)N[C@H](Cc2ccccc2)COc2cnc3ccccc3c2C(=O)N1` [Example 129, (9S,13S,19aR,22R)-22-benzyl-N-(2-(1,4-dimethyl-1H-pyrazol-3-yl)ethyl)-13-isobutyl-12-methyl-7,11,14,20-tetraoxo-7,8,9,10,11,12,13,14,17,18,19,19a,20,21,22,23-hexadecahydro-16H-pyrido[2′,11:6,7][1]oxa[4,7,10,14]tetraazacycloheptadecino[17,16-c]quinoline-9-carboxamide], the EC50 turned out to be 0.406 µM and the Emax came to 264%.
The corresponding values for `COc1cccc(-c2noc(CCNC(=O)[C@@H]3CC(=O)N(C)[C@@H](CC(C)C)C(=O)N4CCOC[C@@H]4C(=O)N[C@H](Cc4ccccc4)COc4cnc5ccccc5c4C(=O)N3)n2)c1` [Example 130, (9S,13S,19aR,22R)-22-benzyl-13-isobutyl-N-(2-(3-(3-methoxyphenyl)-1,2,4-oxadiazol-5-yl)ethyl)-12-methyl-7,11,14,20-tetraoxo-7,8,9,10,11,12,13,14,16,17,19,19a,20,21,22,23-hexadecahydro-[1,4]oxazino[3′,4′:6,7][1]oxa[4,7,10,14]tetraazacycloheptadecino[17,16-c]quinoline-9-carboxamide] are 1 µM and 264%.
The corresponding values for `COc1cccc(CCNC(=O)[C@@H]2CC(=O)N(C)[C@@H](CC(C)C)C(=O)N(C)C3(CC3)C(=O)N[C@H](Cc3ccccc3)COc3cnc4ccc(F)cc4c3C(=O)N2)c1` [Example 131, (3′S,7′S,13′R)-13′-benzyl-20′-fluoro-7′-isobutyl-N-(3-methoxyphenethyl)-6′,9′-dimethyl-1′,5′,8′,11′-tetraoxo-2′,3′,4′,5′,6′,7′,8′,9′,11′,12′,13′,14′-dodecahydro-1′H-spiro[cyclopropane-1,10′-[1]oxa[4,7,10,14]tetraazacycloheptadecino[17,16-c]quinoline]-3′-carboxamide] are 0.127 µM and 320%.
Take `CC(C)C[C@H]1C(=O)N(C)C2(CC2)C(=O)N[C@H](Cc2ccccc2)COc2cnc3ccc(F)cc3c2C(=O)N[C@H](C(=O)NCCc2c(F)cccc2F)CC(=O)N1C` [Example 132, (3′S,7′S,13′R)-13′-benzyl-N-(2,6-difluorophenethyl)-20′-fluoro-7′-isobutyl-6′,9′-dimethyl-1′,5′,8′,11′-tetraoxo-2′,3′,4′,5′,6′,7′,8′,9′,11′,12′,13′,14′-dodecahydro-1′H-spiro[cyclopropane-1,10′-[1]oxa[4,7,10,14]tetraazacycloheptadecino[17,16-c]quinoline]-3′-carboxamide]: the concentration for a half-maximal effect (EC50) was 0.11 µM and the Emax is 313%.
In the same order, the values of `CC(C)C[C@H]1C(=O)N(C)C2(CC2)C(=O)N[C@H](Cc2ccccc2)COc2cnc3ccc(F)cc3c2C(=O)N[C@H](C(=O)NCCc2ccc(-c3cnccn3)cc2)CC(=O)N1C` [Example 133, (3′S,7′S,13′R)-13′-benzyl-20′-fluoro-7′-isobutyl-6′,9′-dimethyl-1′,5′,8′,11′-tetraoxo-N-(4-(pyrazin-2-yl)phenethyl)-2′,3′,4′,5′,6′,7′,8′,9′,11′,12′,13′,14′-dodecahydro-1′H-spiro[cyclopropane-1,10′-[1]oxa[4,7,10,14]tetraazacycloheptadecino[17,16-c]quinoline]-3′-carboxamide] are 0.149 µM and 213%.
For `CC(C)C[C@H]1C(=O)N(C)C2(CC2)C(=O)N[C@H](Cc2ccccc2)COc2cnc3ccc(F)cc3c2C(=O)N[C@H](C(=O)NCCc2cccc(-c3cnccn3)c2)CC(=O)N1C` [Example 134, (3′S,7′S,13′R)-13′-benzyl-20′-fluoro-7′-isobutyl-6′,9′-dimethyl-1′,5′,8′,11′-tetraoxo-N-(3-(pyrazin-2-yl)phenethyl)-2′,3′,4′,5′,6′,7′,8′,9′,11′,12′,13′,14′-dodecahydro-1′H-spiro[cyclopropane-1,10′-[1]oxa[4,7,10,14]tetraazacycloheptadecino[17,16-c]quinoline]-3′-carboxamide], the EC50 is 0.506 µM and the Emax was 150%.
